What was measured:
[1] = Hepatocyte (Hep) intrinsic clearance, rat; assay type: in vitro ADME; details: hepatocytes
adenosine A1 receptor = adenosine A1 receptor (Homo sapiens (Human), UniProt P30542); test: A1 cAMP IC50 assay (Table 1); assay type: biochemical
adenosine A3 receptor = adenosine A3 receptor (Homo sapiens (Human), UniProt P0DMS8); test: A3 cAMP IC50 assay (Table 1); assay type: biochemical
[2] = Hepatocyte (Hep) intrinsic clearance, human; assay type: in vitro ADME; details: hepatocytes
CYP3A4 = CYP3A4 (Homo sapiens (Human), UniProt P08684); test: CYP450 inhibition at 10 μM, CYP3A4; assay type: in vitro ADME; details: for inhibition at 10 µM: human, read-out: CYP 450 % INH @ 10 μM
Chain of CYP3A4 (P08684 whole entry): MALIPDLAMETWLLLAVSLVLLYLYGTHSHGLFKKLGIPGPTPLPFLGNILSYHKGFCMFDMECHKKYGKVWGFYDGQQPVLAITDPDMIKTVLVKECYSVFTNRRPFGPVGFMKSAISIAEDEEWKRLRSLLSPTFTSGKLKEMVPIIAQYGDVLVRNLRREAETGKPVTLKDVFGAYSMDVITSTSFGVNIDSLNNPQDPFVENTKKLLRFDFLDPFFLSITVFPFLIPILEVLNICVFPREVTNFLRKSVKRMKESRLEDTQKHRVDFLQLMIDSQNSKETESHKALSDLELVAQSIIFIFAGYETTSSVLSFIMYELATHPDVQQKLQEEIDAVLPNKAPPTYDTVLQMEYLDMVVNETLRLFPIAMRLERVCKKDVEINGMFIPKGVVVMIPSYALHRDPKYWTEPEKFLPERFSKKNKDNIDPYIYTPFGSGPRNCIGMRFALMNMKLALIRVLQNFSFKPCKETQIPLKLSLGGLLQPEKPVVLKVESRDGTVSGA

adenosine A2B receptor = adenosine A2B receptor (Homo sapiens (Human), UniProt P29275); test: Adenosine receptor activity assay (Table 1), A2B activity; assay type: biochemical; details: for Ratio: A2A activity to A2B activity (A2A/A2B); for IC50: read-out: Ave A2B cAMP IC50
Chain of adenosine A2B receptor (P29275 whole entry): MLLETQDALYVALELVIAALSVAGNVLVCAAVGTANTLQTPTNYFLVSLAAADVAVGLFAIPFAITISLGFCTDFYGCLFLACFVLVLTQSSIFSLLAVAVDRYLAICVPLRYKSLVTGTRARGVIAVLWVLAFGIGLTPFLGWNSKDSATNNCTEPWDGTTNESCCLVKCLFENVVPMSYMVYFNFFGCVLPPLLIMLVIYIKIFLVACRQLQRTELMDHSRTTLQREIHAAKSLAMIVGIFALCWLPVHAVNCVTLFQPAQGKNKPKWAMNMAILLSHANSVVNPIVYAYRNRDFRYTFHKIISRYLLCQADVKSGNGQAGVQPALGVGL

adenosine A2A receptor = adenosine A2A receptor (Homo sapiens (Human), UniProt P29274); test: Adenosine receptor activity assay (Table 1), A2A activity; assay type: biochemical; details: read-out: Ave A2A cAMP IC50
Chain of adenosine A2A receptor (P29274 whole entry): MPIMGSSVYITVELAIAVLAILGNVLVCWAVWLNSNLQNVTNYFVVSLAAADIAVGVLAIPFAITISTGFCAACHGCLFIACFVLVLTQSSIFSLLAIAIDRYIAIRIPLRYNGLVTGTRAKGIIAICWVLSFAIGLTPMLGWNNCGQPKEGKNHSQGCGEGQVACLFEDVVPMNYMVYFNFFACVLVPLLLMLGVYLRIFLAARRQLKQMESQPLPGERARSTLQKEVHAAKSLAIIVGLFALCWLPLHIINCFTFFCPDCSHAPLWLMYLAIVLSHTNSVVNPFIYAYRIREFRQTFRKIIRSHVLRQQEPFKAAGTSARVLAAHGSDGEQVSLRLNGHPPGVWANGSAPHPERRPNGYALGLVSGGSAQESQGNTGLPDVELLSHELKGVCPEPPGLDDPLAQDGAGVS

[3] = Liver microsome (LM) intrinsic clearance, human; assay type: in vitro ADME
[4] = Liver microsome (LM) intrinsic clearance, rat; assay type: in vitro ADME
CYP2D6 = CYP2D6 (Homo sapiens (Human), UniProt P10635); test: CYP450 inhibition at 10 μM, CYP2D6; assay type: in vitro ADME; details: read-out: CYP 450 % INH @ 10 μM
Chain of CYP2D6 (P10635 whole entry): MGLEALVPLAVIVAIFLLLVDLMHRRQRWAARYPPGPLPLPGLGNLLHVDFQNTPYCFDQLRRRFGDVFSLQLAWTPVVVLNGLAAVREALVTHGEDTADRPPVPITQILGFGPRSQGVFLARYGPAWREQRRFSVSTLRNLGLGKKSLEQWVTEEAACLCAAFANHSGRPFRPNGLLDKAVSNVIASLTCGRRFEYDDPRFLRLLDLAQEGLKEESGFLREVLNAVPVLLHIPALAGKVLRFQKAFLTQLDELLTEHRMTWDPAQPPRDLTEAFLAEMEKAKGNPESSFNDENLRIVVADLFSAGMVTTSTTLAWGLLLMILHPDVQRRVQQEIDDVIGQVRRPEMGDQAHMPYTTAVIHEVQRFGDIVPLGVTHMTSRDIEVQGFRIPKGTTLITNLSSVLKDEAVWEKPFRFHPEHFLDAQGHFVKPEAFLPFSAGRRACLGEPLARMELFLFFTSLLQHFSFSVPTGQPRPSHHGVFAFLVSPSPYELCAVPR

Chain of adenosine A1 receptor (P30542 whole entry): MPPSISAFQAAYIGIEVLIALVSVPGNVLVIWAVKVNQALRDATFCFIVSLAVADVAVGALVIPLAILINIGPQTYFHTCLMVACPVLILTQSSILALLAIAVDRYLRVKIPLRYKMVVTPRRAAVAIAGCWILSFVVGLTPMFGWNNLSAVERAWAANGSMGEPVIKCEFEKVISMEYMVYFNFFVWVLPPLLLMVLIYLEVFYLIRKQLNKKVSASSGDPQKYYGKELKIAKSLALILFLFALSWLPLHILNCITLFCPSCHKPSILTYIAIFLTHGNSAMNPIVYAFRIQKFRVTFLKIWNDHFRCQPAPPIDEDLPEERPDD
Chain of adenosine A3 receptor (P0DMS8 whole entry): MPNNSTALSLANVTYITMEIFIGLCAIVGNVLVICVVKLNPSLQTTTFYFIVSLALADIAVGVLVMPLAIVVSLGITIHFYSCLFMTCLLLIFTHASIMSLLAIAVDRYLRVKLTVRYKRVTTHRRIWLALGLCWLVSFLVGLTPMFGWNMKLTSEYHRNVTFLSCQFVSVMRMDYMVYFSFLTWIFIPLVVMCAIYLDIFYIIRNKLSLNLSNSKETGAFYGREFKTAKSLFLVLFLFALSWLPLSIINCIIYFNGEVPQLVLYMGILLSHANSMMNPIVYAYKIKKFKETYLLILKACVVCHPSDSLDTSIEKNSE

Row | hepatocyte CLint [1] [µL/min/1e6 cells] | IC50 (adenosine A1 receptor) [nM] | IC50 (adenosine A3 receptor) [nM] | hepatocyte CLint [2] [µL/min/1e6 cells] | inhibition at 10 µM (CYP3A4) [%] | Ratio (adenosine A2B receptor) | IC50 (adenosine A2B receptor) [nM] | IC50 (adenosine A2A receptor) [nM] | LM CLint [3] [μL/min/mg/protein] | LM CLint [4] [μL/min/mg/protein] | inhibition at 10 µM (CYP2D6) [%] | CYP3A4 IC50 (CYP3A4) [nM] | SMILES
1 | 51.7 | > 500 | > 500 | 13.9 | 75 | 71.92 | < 10 | 100 to 500 |  |  |  |  | COC1CN(C(=O)c2nc(NCc3cncc(F)c3)nc3ccsc23)C1 [Example Z115, (2-(((5-Fluoropyridin-3-yl)methyl)amino)thieno[3,2-d]pyrimidin-4-yl)(3-methoxyazetidin-1-yl)methanone]
2 | 65.3 | > 500 | > 500 | 21.1 | 48.9 | 37.02 | 10 to 50 | > 500 |  |  |  |  | O=C(c1nc(NCc2cncc(F)c2)nc2ccsc12)N1CC[C@H](F)C1 [Example Z99, (S)-(2-(((5-Fluoropyridin-3-yl)methyl)amino)thieno[3,2-d]pyrimidin-4-yl)(3-fluoropyrrolidin-1-yl)methanone]
3 | 144 | > 500 | > 500 | 42.8 | -50.9 | 15.42 | < 10 | 100 to 500 |  |  |  |  | C[C@H](Nc1nc(C(=O)N2CCCC2)c2sccc2n1)c1cccc(F)c1 [Example Z125, (S)-(2-((1-(3-Fluorophenyl)ethyl)amino)thieno[3,2-d]pyrimidin-4-yl)(pyrrolidin-1-yl)methanone]
4 | 21.2 |  |  | 7.1 | 24 | 15.71 | 10 to 50 | 100 to 500 | 16.45 | 14.07 | 4 |  | O=C(c1nc(NCc2cncc(F)c2)nc2ccsc12)N1CC[C@@H](O)C1 [Example Z66, (R)-(2-(((5-Fluoropyridin-3-yl)methyl)amino)thieno[3,2-d]pyrimidin-4-yl)(3-hydroxypyrrolidin-1-yl)methanone]
5 | 46.5 | > 500 | > 500 | 45.2 | 0 | 10.92 | 10 to 50 | 100 to 500 |  |  |  |  | C[C@H](Nc1nc(C(=O)N2CC(F)(F)C2)c2sccc2n1)c1ccccn1 [Example Z92, (S)-(3,3-Difluoroazetidin-1-yl)(2-((1-(pyridin-2-yl)ethyl)amino)thieno[3,2-d]pyrimidin-4-yl)methanone]
6 | 72.9 | > 500 | > 500 | 17.9 | 62.7 | 72.09 | < 10 | 100 to 500 |  |  |  |  | C[C@H](Nc1nc(C(=O)N2CCCC2)c2sccc2n1)c1cncc(F)c1 [Example Z134, (S)-(2-((1-(5-Fluoropyridin-3-yl)ethyl)amino)thieno[3,2-d]pyrimidin-4-yl)(pyrrolidin-1-yl)methanone]
7 | 61.4 | > 500 | > 500 | 41.3 | 53.8 | 30.97 | 10 to 50 | > 500 |  |  |  |  | O=C(c1nc(NCc2cncc(F)c2)nc2ccsc12)N1CC(F)(F)C1 [Example Z97, (3,3-Difluoroazetidin-1-yl)(2-(((5-fluoropyridin-3-yl)methyl)amino)thieno[3,2-d]pyrimidin-4-yl)methanone]
8 | 23.4 | > 500 | > 500 | 5.66 | 31 | 10.93 | 10 to 50 |  |  |  |  |  | COC1CN(C(=O)c2nc(N[C@@H](C)c3ccccn3)nc3ccsc23)C1 [Example Z108, (S)-(3-Methoxyazetidin-1-yl)(2-((1-(pyridin-2-yl)ethyl)amino)thieno[3,2-d]pyrimidin-4-yl)methanone]
9 | 55.1 | > 500 | > 500 | 11.8 | 19 | 4.25 | 10 to 50 | 50 to 100 |  |  |  |  | C[C@@H]1CCN(C(=O)c2nc(N[C@@H](C)c3ccccn3)nc3ccsc23)C1 [Example Z86, ((R)-3-Methylpyrrolidin-1-yl)(2-(((S)-1-(pyridin-2-yl)ethyl)amino)thieno[3,2-d]pyrimidin-4-yl)methanone]
10 | 47.1 |  |  | 7.19 | 19 | 16.69 | 10 to 50 | 100 to 500 |  |  |  |  | Cc1ncccc1CNc1nc(C(=O)N2CCCC2)c2sccc2n1 [Example Z91, (2-(((2-Methylpyridin-3-yl)methyl)amino)thieno[3,2-d]pyrimidin-4-yl)(pyrrolidin-1-yl)methanone]
11 | 33.3 | > 500 | > 500 | 6.32 | 0 | 18.88 | < 10 | 50 to 100 |  |  |  |  | C[C@H](Nc1nc(C(=O)N2CCC2)c2sccc2n1)c1ccccn1 [Example Z90, (S)-Azetidin-1-yl(2-((1-(pyridin-2-yl)ethyl)amino)thieno[3,2-d]pyrimidin-4-yl)methanone]
12 | 71.2 |  |  | 23.1 | 45 |  |  | 100 to 500 | 43.24 | 89.01 | 4 | 12400 | O=C(c1nc(NCc2cncc(F)c2)nc2ccsc12)N1CCCC1 [Example Z21, (2-(((5-Fluoropyridin-3-yl)methyl)amino)thieno[3,2-d]pyrimidin-4-yl)(pyrrolidin-1-yl)methanone]
13 | 27.7 | > 500 | > 500 | 58.9 | 1.91 | 19.04 | < 10 | 100 to 500 |  |  |  |  | C[C@H](Nc1nc(C(=O)N2CCOC2)c2sccc2n1)c1ccccn1 [Example Z105, (S)-Oxazolidin-3-yl(2-((1-(pyridin-2-yl)ethyl)amino)thieno[3,2-d]pyrimidin-4-yl)methanone]
14 | 57.6 | > 500 | > 500 | 13.3 | 19.9 | 11.70 | 10 to 50 | 100 to 500 |  |  |  |  | C[C@H]1CCN(C(=O)c2nc(N[C@@H](C)c3ccccn3)nc3ccsc23)C1 [Example Z87, ((S)-3-Methylpyrrolidin-1-yl)(2-(((S)-1-(pyridin-2-yl)ethyl)amino)thieno[3,2-d]pyrimidin-4-yl)methanone]
15 | 19.9 | > 500 | > 500 | 4.11 | 28.4 | 68.08 | < 10 | > 500 |  |  |  |  | O=C(c1nc(NCc2cncc(F)c2)nc2ccsc12)N1CC(O)C1 [Example Z109, (2-(((5-Fluoropyridin-3-yl)methyl)amino)thieno[3,2-d]pyrimidin-4-yl)(3-hydroxyazetidin-1-yl)methanone]
16 | 45.4 | > 500 | > 500 | 8.64 | 19.9 | 15.70 | < 10 | 50 to 100 |  |  |  |  | CCNC(=O)c1nc(N[C@@H](C)c2ccccn2)nc2ccsc12 [Example Z111, (S)—N-Ethyl-2-((1-(pyridin-2-yl)ethyl)amino)thieno[3,2-d]pyrimidine-4-carboxamide]
17 | 40.7 | > 500 | > 500 | 16.8 | 0 | 5.59 | 10 to 50 | 100 to 500 |  |  |  |  | C[C@H](Nc1nc(C(=O)N2CCC(F)(F)C2)c2sccc2n1)c1ccccn1 [Example Z96, (S)-(3,3-Difluoropyrrolidin-1-yl)(2-((1-(pyridin-2-yl)ethyl)amino)thieno[3,2-d]pyrimidin-4-yl)methanone]
18 | 249 |  |  | 85.1 | 48.6 |  | 10 to 50 | 100 to 500 |  |  |  |  | O=C(c1nc(NCc2cccc(Cl)c2)nc2ccsc12)N1CCC1 [Example Z121, Azetidin-1-yl(2-((3-chlorobenzyl)amino)thieno[3,2-d]pyrimidin-4-yl)methanone]
19 | 22 | > 500 | > 500 | 5.54 | 76.5 | 42.97 | 10 to 50 | > 500 |  |  |  |  | O=C(NCCO)c1nc(NCc2cncc(F)c2)nc2ccsc12 [Example Z123, 2-(((5-Fluoropyridin-3-yl)methyl)amino)-N-(2-hydroxyethyl)thieno[3,2-d]pyrimidine-4-carboxamide]
20 | 22.2 | > 500 | > 500 | 1.89 | 7.65 | 11.09 | 10 to 50 | 100 to 500 |  |  |  |  | C[C@H](Nc1nc(C(=O)N2CC(O)C2)c2sccc2n1)c1ccccn1 [Example Z100, (S)-(3-Hydroxyazetidin-1-yl)(2-((1-(pyridin-2-yl)ethyl)amino)thieno[3,2-d]pyrimidin-4-yl)methanone]

Reference: patent US11254686B1 (Corvus Pharmaceuticals, Inc., priority 2017, dated 2022)
